Assay results published in US7279497B2, “Benzopyran derivatives substituted with secondary amines including imidazole, their preparation and pharmaceutical compositions containing them” (Korea Research Institute of Chemical Technology, priority 2002, dated 2007).

Legend:
SPF SD rats = settings: rat, in vivo, po;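 also: Six-week-old animals, two per group, followed across an observation period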
[1] = system: HUVECs (Human umbilical vein endothelial cells); test: Inhibitory effects on HUVEC tube formation; format: cell-based; settings: for Tube formation: 50 μM; for inhibitory effect on HUVEC tube formation: 50 uM;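 as to tube formation: from minus no inhibition up to plus-plus-plus complete inhibition versus vehicle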
Procedure: The Inhibitory effects of the compounds of the formula 1 on angiogenesis were meassured by the vascular tube formation assay of HUVECs (Human umbilical vein endothelial cells), which is one of the major angiogenic steps.
HUVECs were isolated from human umbilical vein, and cultured. HUVECs within passage 5 from confluent cultures were detached, and plated onto a layer of a bFGF (basic fibroblast growth factor)-reduced and polymerized Matrigel. Matrigel cultures were incubated with or without the compounds of formula 1, and the changes of cell morphology were captured through a phase contrast microscope and photographed.

`COC(OC)[C@]1(C)Oc2ccc(N)cc2[C@H](N(Cc2ncc[nH]2)c2ccc(Br)cc2)[C@H]1O` [Example 29, (2R,3R,4S)-6-amino-3,4-dihydro-2-dimethoxymethyl-3-hydroxy-2-methyl-4-[N-(4-bromophenyl)-N-(1H-imidazol-2-ylmethyl)amino]-2H-1-benzopyran] was tested, and the “clinical symptoms, body weight and mortality” value (from here on “clinical symptoms”) (SPF SD rats) was “no significant changes” and the Tube formation [1] was “+”.
In the case of `COC(OC)[C@@]1(C)Oc2ccc([N+](=O)[O-])cc2[C@@H](N(Cc2ncc[nH]2)c2ccc(Br)cc2)[C@@H]1O` [Example 8, (2S,3S,4R)-3,4-dihydro-2-dimethoxymethyl-3-hydroxy-2-methyl-6-nitro-4-[N-(4-bromophenyl)-N-(1H-imidazol-2-ylmethyl)amino]-2H-1-benzopyran], the “clinical symptoms” value (SPF SD rats) is reported as “no significant changes” and the Tube formation [1] is reported as “+”.
In the case of `COC(OC)[C@]1(C)Oc2ccc([N+](=O)[O-])cc2[C@@H](N(Cc2ncc[nH]2)c2ccc(Cl)cc2)[C@@H]1O` [Example 4, (2R,3S,4R)-3,4-dihydro-2-dimethoxymethyl-3-hydroxy-2-methyl-6-nitro-4-[N-(4-chlorophenyl)-N-(1H-imidazol-2-ylmethyl)amino]-2H-1-benzopyran], the “clinical symptoms” value (SPF SD rats) is reported as “no significant changes” and the Tube formation [1] is reported as “+”.
For `COC(OC)[C@]1(C)Oc2ccc([N+](=O)[O-])cc2[C@H](N(Cc2ncc[nH]2)c2cccc(C)c2C)[C@H]1O` [Example 12, (2R,3R,4S)-3,4-dihydro-2-dimethoxymethyl-3-hydroxy-2-methyl-6-nitro-4-[N-(2,3-dimethylphenyl)-N-(1H-imidazol-2-ylmethyl)amino]-2H-1-benzopyran], the “clinical symptoms” value (SPF SD rats) was “no significant changes” and the Tube formation [1] was “+”.
In the case of `COC(OC)[C@]1(C)Oc2ccc([N+](=O)[O-])cc2[C@H](N(Cc2ncc[nH]2)c2ccc(Br)cc2)[C@H]1O` [Example 13, (2R,3R,4S)-3,4-dihydro-2-dimethoxymethyl-3-hydroxy-2-methyl-6-nitro-4-[N-(4-bromophenyl)-N-(1H-imidazol-2-ylmethyl)amino]-2H-1-benzopyran], the “clinical symptoms” value (SPF SD rats) is reported as “no significant changes” and the Tube formation [1] is reported as “+”.
`COC(OC)[C@]1(C)Oc2ccc([N+](=O)[O-])cc2[C@H](N(Cc2ncc[nH]2)c2ccc(Cl)cc2)[C@H]1O` [Example 3, (2R,3R,4S)-3,4-dihydro-2-dimethoxymethyl-3-hydroxy-2-methyl-6-nitro-4-[N-(4-chlorophenyl)-N-(1H-imidazol-2-ylmethyl)amino]-2H-1-benzopyran] was tested, and the “clinical symptoms” value (SPF SD rats) was “no significant changes”, the “inhibitory effect on HUVEC tube formation” value (“inhibitory effect” below) [1] was “strongly inhibited” and the Tube formation [1] was “++”.
For `COC(OC)[C@@]1(C)Oc2ccc([N+](=O)[O-])cc2[C@@H](N(Cc2ncc[nH]2)c2ccc(C(F)(F)F)cc2)[C@@H]1O` [Example 5, (2S,3S,4R)-3,4-dihydro-2-dimethoxymethyl-3-hydroxy-2-methyl-6-nitro-4-[N-(4-trifluoromethylphenyl)-N-(1H-imidazol-2-ylmethyl)amino]-2H-1-benzopyran], the “clinical symptoms” value (SPF SD rats) was “no significant changes”, the “inhibitory effect” value [1] was “strongly inhibited” and the Tube formation [1] was “++”.
With `COC(OC)[C@@]1(C)Oc2ccc([N+](=O)[O-])cc2[C@@H](N(Cc2ncc[nH]2)c2ccc(OC(F)(F)F)cc2)[C@@H]1O` [Example 7, (2S,3S,4R)-3,4-dihydro-2-dimethoxymethyl-3-hydroxy-2-methyl-6-nitro-4-[N-(4-trifluoromethoxyphenyl)-N-(1H-imidazol-2-ylmethyl)amino]-2H-1-benzopyran] the “clinical symptoms” value (SPF SD rats) was “no significant changes” and the Tube formation [1] was “+”.
For `COC(OC)[C@]1(C)Oc2ccc(N)cc2[C@H](N(Cc2ncc[nH]2)c2ccc(OC(F)(F)F)cc2)[C@H]1O` [Example 26, (2R,3R,4S)-6-amino-3,4-dihydro-2-dimethoxymethyl-3-hydroxy-2-methyl-4-[N-(4-trifluoromethoxyphenyl)-N-(1H-imidazol-2-ylmethyl)amino]-2H-1-benzopyran], the “clinical symptoms” value (SPF SD rats) was “no significant changes” and the Tube formation [1] was “+”.
For `COC(OC)[C@]1(C)Oc2ccc(N)cc2[C@H](N(Cc2ncc[nH]2)c2cccc(C)c2C)[C@H]1O` [Example 27, (2R,3R,4S)-6-amino-3,4-dihydro-2-dimethoxymethyl-3-hydroxy-2-methyl-4-[N-(2,3-dimethylphenyl)-N-(1H-imidazol-2-ylmethyl)amino]-2H-1-benzopyran], the “clinical symptoms” value (SPF SD rats) was “no significant changes” and the Tube formation [1] was “+/−”.
In the case of `COC(OC)[C@@]1(C)Oc2ccc([N+](=O)[O-])cc2[C@@H](N(Cc2ncc[nH]2)c2ccccc2C(C)C)[C@@H]1O` [Example 10, (2S,3S,4R)-3,4-dihydro-2-dimethoxymethyl-3-hydroxy-2-methyl-6-nitro-4-[N-(2-isopropylphenyl)-N-(1H-imidazol-2-ylmethyl)amino]-2H-1-benzopyran], the “clinical symptoms” value (SPF SD rats) is reported as “no significant changes”, the “inhibitory effect” value [1] is reported as “strongly inhibited” and the Tube formation [1] is reported as “++”.
`COc1ccc(N(Cc2ncc[nH]2)[C@H]2c3cc(N)ccc3O[C@@](C)(C(OC)OC)[C@@H]2O)cc1` [Example 28, (2R,3R,4S)-6-amino-3,4-dihydro-2-dimethoxymethyl-3-hydroxy-2-methyl-4-[N-(4-methoxyphenyl)-N-(1H-imidazol-2-ylmethyl)amino]-2H-1-benzopyran] was tested, and the “clinical symptoms” value (SPF SD rats) was “no significant changes” and the Tube formation [1] was “+”.
